Experimental data published in PubChem BioAssay (NCI).
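GI50: concentration for 50% inhibition of growth. TGI denotes the concentration required for complete inhibition of growth.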

Assays:
Experiment in all cases: DTP human tumour cell line panel, 384-well format
BT-549 breast = system: BT-549 breast
K-562 leukemia = system: K-562 leukemia
MDA-MB-435 melanoma = system: MDA-MB-435 melanoma
SW-620 colon = system: SW-620 colon
MOLT-4 leukemia = system: MOLT-4 leukemia
HL-60(TB) leukemia = system: HL-60(TB) leukemia
NCI-H522 lung = system: NCI-H522 lung
HT29 colon = system: HT29 colon
IGROV1 ovarian = system: IGROV1 ovarian
SNB-75 CNS = system: SNB-75 CNS
HOP-62 NSCLC = system: HOP-62 NSCLC
SK-OV-3 ovarian = system: SK-OV-3 ovarian
A549 NSCLC = system: A549 NSCLC
DU-145 prostate = system: DU-145 prostate
OVCAR-3 ovarian = system: OVCAR-3 ovarian
EKVX NSCLC = system: EKVX NSCLC
COLO 205 colon = system: COLO 205 colon
NCI-H23 lung = system: NCI-H23 lung
HOP-92 NSCLC = system: HOP-92 NSCLC
A498 renal = system: A498 renal
UO-31 renal = system: UO-31 renal
HCT-15 colon = system: HCT-15 colon
CAKI-1 renal = system: CAKI-1 renal
SNB-19 CNS = system: SNB-19 CNS
OVCAR-5 ovarian = system: OVCAR-5 ovarian
SR leukemia = system: SR leukemia
U251 glioblastoma = system: U251 glioblastoma
OVCAR-8 ovarian = system: OVCAR-8 ovarian

Molecule `CC(C)N(C[C@H]1O[C@@H](n2cnc3c(N)ncnc32)[C@H](O)[C@@H]1O)C1CC(CCc2nc3ccc(C(C)(C)C)cc3[nH]2)C1` (stereo not given in full) has a GI50 (BT-549 breast) of 18 µM, a TGI (BT-549 breast) of 32.5 µM and a GI50 (K-562 leukemia) of 31 µM. The TGI (K-562 leukemia) was over 100 µM, the GI50 (MDA-MB-435 melanoma) was 17.9 µM and the TGI (MDA-MB-435 melanoma) was 31.8 µM. The GI50 (SW-620 colon) was 52.3 µM, the TGI (SW-620 colon) was over 100 µM and the GI50 (MOLT-4 leukemia) was 18.8 µM. For the same molecule, the TGI (MOLT-4 leukemia) was 32.8 µM, the GI50 (HL-60(TB) leukemia) was 13.3 µM and the TGI (HL-60(TB) leukemia) was 26 µM. The GI50 (NCI-H522 lung) was 20.1 µM, the TGI (NCI-H522 lung) was 35.3 µM and the GI50 (HT29 colon) was 19.1 µM. It also gave a TGI (HT29 colon) of 35.3 µM, a GI50 (IGROV1 ovarian) of 51 µM and a TGI (IGROV1 ovarian) of over 100 µM. For the same molecule, the GI50 (SNB-75 CNS) was 22.5 µM, the TGI (SNB-75 CNS) was 44.9 µM and the GI50 (HOP-62 NSCLC) was over 100 µM. It also gave a TGI (HOP-62 NSCLC) of over 100 µM, a GI50 (SK-OV-3 ovarian) of over 100 µM and a TGI (SK-OV-3 ovarian) of over 100 µM. For the same molecule, the GI50 (A549 NSCLC) was over 100 µM, the TGI (A549 NSCLC) was over 100 µM and the GI50 (DU-145 prostate) was over 100 µM. It also gave a TGI (DU-145 prostate) of over 100 µM, a GI50 (OVCAR-3 ovarian) of 49.6 µM and a TGI (OVCAR-3 ovarian) of over 100 µM. For the same molecule, the GI50 (EKVX NSCLC) was 88.1 µM, the TGI (EKVX NSCLC) was over 100 µM and the GI50 (COLO 205 colon) was 25.6 µM. For the same molecule, the TGI (COLO 205 colon) was 58.6 µM, the GI50 (NCI-H23 lung) was 46.6 µM and the TGI (NCI-H23 lung) was over 100 µM. For the same molecule, the GI50 (HOP-92 NSCLC) was 19.2 µM, the TGI (HOP-92 NSCLC) was 40.9 µM and the GI50 (A498 renal) was over 100 µM. It also gave a TGI (A498 renal) of over 100 µM, a GI50 (UO-31 renal) of over 100 µM and a TGI (UO-31 renal) of over 100 µM. For the same molecule, the GI50 (HCT-15 colon) was over 100 µM, the TGI (HCT-15 colon) was over 100 µM and the GI50 (CAKI-1 renal) was over 100 µM. For the same molecule, the TGI (CAKI-1 renal) was over 100 µM, the GI50 (SNB-19 CNS) was over 100 µM and the TGI (SNB-19 CNS) was over 100 µM. It also gave a GI50 (OVCAR-5 ovarian) of over 100 µM, a TGI (OVCAR-5 ovarian) of over 100 µM and a GI50 (SR leukemia) of 17.9 µM. It also gave a TGI (SR leukemia) of 31.8 µM, a GI50 (U251 glioblastoma) of 41.7 µM and a TGI (U251 glioblastoma) of over 100 µM. For the same molecule, the GI50 (OVCAR-8 ovarian) was over 100 µM.
